Experimental findings from US20160205934A1 (Rohm and Haas Company, priority 2013, published 2016) are described below.

For one test, the system named is Chlorella sp. ATCC 7516. Put plainly: Algal efficacy testing of dry paint films (modified ASTM 5589, 6-well plates). Type of test: cell-based. The following applies: 4 weeks; for inhibition at 1000 ppm: total conc 1000 ppm; for Total conc: total biocide conc in paint chosen as minimum inhibitory concentration (pass level 75% inhibition), or maximum tested where pass not reached. On the procedure: (§1) The at least one phenylurea herbicide, (diuron, chlorotoluron, and/or isoproturon) was post added, as 33% active slurries, to a white, acrylic/silicone based outdoor paint free of biocides to give a total active ingredient concentration of 10000 and 1000 ppm respectively. These paints were then diluted with an antimicrobial free acrylic/silicone based paint and mixed to prepare targeted concentrations of antimicrobial compounds for the testing. The total biocides concentrations tested were 125, 250, 500, 1000, 2000 and 5000 ppm. After biocides addition or dilution, the paints were mixed 90 seconds with the horse power shaker (AXEL 75M3372/Agitateur SO-10MI) until uniformity was achieved. Paints containing different antimicrobial compounds at the same levels were mixed together in order to obtain the desired ratio of antimicrobial compounds. After one day, the paints were applied to Schleicher & Schuell filter paper at 280 μm wet film thickness and dried for 3 days at room temperature avoiding direct exposure to sunlight. Square discs (1.6 cm×1.6 cm) were cut out from each panel and were used as the substrate for algal efficacy tests. This sample size allowed for an agar border when the sample disc was placed into the well of the test plate.
(§2) Algal efficacy was tested according to modified ASTM 5589 which is a standard accelerated test method for determining resistance of various coatings (including paints) to algal defacement. To accommodate for high-throughput screening, this method was scaled down from petri dishes to 6-well plates. Bold Modified Basal Freshwater Nutrient Solution was used as growth medium. A single coated filter paper coupon was placed with a pair of sterile forceps at the center of the agar plug (on top) with the painted surface facing upwards. Algal inoculums were prepared by mixing equal concentrations (1×10^6 cfu/ml) and equal volumes of exponentially growing algae cultures.
(§3) Each well that contains a tested coupon was inoculated with 1750 μl of algal suspensions (1×10^6 cfu/ml) making sure that the whole surface (paint film as well as the agar surrounding it) was evenly covered. The plates were incubated at room temp (21° C.-25° C.) with cyclic exposure to light and dark phases, for a period of four weeks.
(§4) At the end of the four week incubation period, the samples were scored for percent inhibition regarding visible algal growth compared to the blank sample (0% inhibition).
(§5) The minimal targeted inhibition was set at 75%, meaning a coupon with at least 75% algal growth inhibition was considered as a pass.

For test [1], the system named is Stichococcus bacillaris SAG 379-1a / CCAP 379/1a. Described as above. Format: cell-based. Conditions: for Total conc: total biocide conc in paint chosen as minimum inhibitory concentration (pass level 75% inhibition), or maximum tested where pass not reached. On the procedure:
as §1, §2, §3, §4, §5

[2] abbreviates: 672 h, visible algal growth vs blank.
[3] abbreviates: Stichococcus bacillaris, 672 h, Stichococcus, total conc 500 ppm, 4 weeks, visible algal growth vs blank, read-out: % inhibition.

Read-outs that look alike come from different tables or passages of the source.

As for `Cc1ccc(NC(=O)N(C)C)cc1Cl` [Chlorotoluron, chlorotoluron], at 1000 ppm the inhibition in the test on Chlorella sp. ATCC 7516 (setting [2]) was 100%. Further, the Total conc with Chlorella sp. ATCC 7516 came out at 1000 ppm; in test [1] (Stichococcus, 4 weeks), 500 ppm. Further, the inhibition (in general, how much of the control response was suppressed) at 500 ppm in test [1] (setting [3]) turned out to be 75%.

Consider `CN(C)C(=O)Nc1ccc(Cl)c(Cl)c1` [Diuron, diuron], for which the inhibition at 500 ppm in the test with Chlorella sp. ATCC 7516 (672 h, total conc 500 ppm, visible algal growth vs blank) worked out at 90%; in test [1] (Stichococcus bacillaris, 672 h) it was 95%. The Total conc in the test on Chlorella sp. ATCC 7516 was 500 ppm; in test [1] (Stichococcus, 4 weeks), 500 ppm.

As to `CC(C)c1ccc(NC(=O)N(C)C)cc1` [Isoproturon, isoproturon], the inhibition at 1000 ppm in the test with Chlorella sp. ATCC 7516 (setting [2]) is 100%. The Total conc with Chlorella sp. ATCC 7516 is listed as 1000 ppm; in test [1] (Stichococcus, 4 weeks) it was 500 ppm. Besides, the inhibition at 500 ppm in test [1] (setting [3]) worked out at 75%.

The molecule `O=c1[nH]c2c(c(=O)n1C1CCCCC1)CCC2` [Lenacil, 3-cyclohexyl-1,5,6,7-tetrahydrocyclopentapyrimidine-2,4(3H)-dione] gave an inhibition at 5000 ppm in the test with Chlorella sp. ATCC 7516 (672 h, total conc 5000 ppm, visible algal growth vs blank) of 45%. This molecule displayed a Total conc in the test on Chlorella sp. ATCC 7516 of 5000 ppm. Further, the % inhibition (in general, the relative decrease from the control value, in per cent) with Chlorella sp. ATCC 7516 (total conc 5000 ppm, visible algal growth vs blank) is 50%. Besides, in test [1] (Stichococcus bacillaris, 672 h), the inhibition at 2000 ppm was determined as 80% and the inhibition at 5000 ppm was found to be 65%.
